Laboratory results as given in US20040002447A1, “Induction of insulin expression” (REGENTS OF THE UNIVERSITY OF CALIFORNIA, priority 2002, published 2004).

Legend:
[1] = test system: somatostatin gene expression in TRM-6/PDX-1 cells; experiment: Somatostatin mRNA expression by RT-PCR in monolayer TRM-6/PDX-1 cells; type: cell-based, human; conditions: approximately 24 hours; for somatastatin mRNA expression (effect in words): TRM-6 cells expressing PDX-1, monolayer cultures
Procedure: The cells were incubated with the inhibitor for approximately 24 hours and then expression of somatastatin expression was measured with RT-PCR. As little as 66 nM TSA lead to an increase in somatastatin induction, with a maximal induction at 6.6. μM of TSA.

[2] = test system: insulin gene expression in TRM-6/PDX-1/NeuroD1 cells; experiment: Insulin mRNA expression by RT-PCR in monolayer TRM-6/PDX-1/NeuroD1 cells; type: cell-based, human
Procedure: FIG. 1 illustrates induction of insulin expression resulting from treatment with trichostatin A (TSA). Insulin mRNA was analyzed by RT-PCR. RT-PCR for the housekeeping gene porphobilinogen deaminase was performed to ensure that equal amounts of cDNA were used. The experiment has been repeated three times and the figure shown here is representative.
Monolayer cultures of TRM-6/PDX-1 also expressing the transcription factor NeuroD 1 (BETA2) express low levels of insulin gene expression.

[3] = test system: insulin promoter (CAT reporter) in HeLa cells; experiment: Insulin promoter CAT reporter activity in HeLa cells transformed with PDX-1; type: cell-based; conditions: HeLa cells transformed with PDX-1 and insulin promoter-CAT plasmid (FIG. 2)
Procedure: FIG. 2 is a bar graph illustrating expression of an insulin promoter in HeLa cells transformed with PDX-1. The graph illustrates differences in expression from the insulin promoter in the presence or absence of the histone deacetylase inhibitor TSA. Insulin promoter activity was determined based on expression of chloramphenicol acetyl transferase (CAT) reporter activity.
In addition, expression of an insulin promoter in HeLa cells was tested for the effect of the histone deacetylase inhibitor TSA on insulin expression. HeLa cells were transformed with PDX-1 and a plasmid comprising a portion of the insulin promoter operably linked to the chloramphenicol acetyl transferase (CAT) reporter gene. The effect of TSA and PDX-1 on insulin expression was then tested. As FIG. 2 illustrates, cells contacted with TSA had approximately 14 times the expression of cells not contacted with TSA.

Q: How did the “concentration giving maximal somatastatin induction” value ([1]; TRM-6/PDX-1 monolayer) turn out when CC(/C=C/C(=O)NO)=C\[C@@H](C)C(=O)c1ccc(N(C)C)cc1 [TSA, trichostatin A] was run?
A: The value was 6.6 µM.

Q: What about the “lowest TSA concentration leading to an increase in somatastatin induction” value ([1]; TRM-6/PDX-1 monolayer) of the same compound?
A: Its value is 66 nM.

Q: And the “somatastatin mRNA expression (effect in words)” value [1]?
A: Its value is “bypassed the need for cell-cell contact to achieve high levels of somatostatin gene expression”.

Q: What about the “somatastatin mRNA expression (effect in words)” value ([1]; listed as trichostatin A) of the same compound?
A: The value was “induced somatastatin mRNA expression”.

Q: What about the “insulin expression (effect in words)” value ([2]; 3.3 μM for 24 hours, TRM-6/PDX-1/NeuroD1 monolayer, RT-PCR (FIG. 1)) of the same compound?
A: Its value is “greatly increases insulin expression”.

Q: And the “insulin gene expression in TRM-6 cells (summary statement)” value ([2]; TRM-6 cells)?
A: The value was “induced insulin gene expression”.

Q: What about the “insulin promoter expression relative to cells not contacted with TSA” value [3] of the same compound?
A: The value was “approximately 14 times”.
